Counter-ions that a name gives are not always drawn.
Key:
18f-NLuc reporter virus = test: microbe, parasite or virus in culture; format: cell-based, Hepatitis A virus; settings: for activity at 10 µM: Hepatovirus A, Huh-7.5.1, 72 h, read-out: Normalized HAV production
Huh-7.5.1 cells = test: Cell viability in the chemical screen (Cell TiterGlo); settings: 10 µM compound, 72 h

Row | SMILES | activity at 10 µM (18f-NLuc reporter virus) | Viability Percent DMSO (Huh-7.5.1 cells) | Normalized HAV production (18f-NLuc reporter virus)
1 | Nc1ccn([C@@H]2CS[C@H](CO)O2)c(=O)n1 [Lamivudine] | 86% | 120 Percent DMSO | –
2 | CC(C)=O.COC(=O)N[C@H](C(=O)N1CC2(CC2)C[C@H]1c1ncc(-c2ccc3c(c2)C(F)(F)c2cc(-c4ccc5nc([C@@H]6[C@H]7CC[C@H](C7)N6C(=O)[C@@H](NC(=O)OC)C(C)C)[nH]c5c4)ccc2-3)[nH]1)C(C)C [Ledipasvir acetone] | – | 172 Percent DMSO | 0.48
3 | CC1(C)O[C@H]2CC(=O)OC[C@]23[C@H]2CC[C@@]4(C)[C@H](c5ccoc5)OC(=O)[C@H]5O[C@]54[C@]2(C)C(=O)C[C@@H]13 [Limonin] | 85% | 111 Percent DMSO | –
4 | CC(C)(C)C#Cc1cc(N(C(=O)[C@H]2CC[C@H](C)CC2)[C@H]2CC[C@H](O)CC2)c(C(=O)O)s1 [Lomibuvir] | 97% | 125 Percent DMSO | –
5 | NC(=O)N1CCC(CC(=O)N2CCC([C@H]3c4ncc(Br)cc4CCc4cc(Cl)cc(Br)c43)CC2)CC1 [Lonafarnib] | 18% | 167 Percent DMSO | –
6 | Cc1cccc(C)c1OCC(=O)N[C@@H](Cc1ccccc1)[C@@H](O)C[C@H](Cc1ccccc1)NC(=O)[C@H](C(C)C)N1CCCNC1=O [Lopinavir] | 43% | 126 Percent DMSO | –
7 | CC(C)c1cc(Oc2c(Cl)cc(-n3nc(C#N)c(=O)[nH]c3=O)cc2Cl)n[nH]c1=O [MGL3196] | 136% | 118 Percent DMSO | –
8 | CCOC(=O)c1c(C)n(C)c2ccc(O)cc12 [Mecarbinate] | – | 100 Percent DMSO | 1.17
9 | COc1cc(NC(=O)Nc2cccc(CNC(=O)O[C@H]3CCOC3)c2)ccc1-c1cnco1 [Merimepodib] | 34% | 159 Percent DMSO | –
10 | Cl.N=C(N=C(N)N)N1CCOCC1 [Moroxydine hydrochloride] | – | 125 Percent DMSO | 1.21
11 | CCCCCCCCCC(=O)O[C@H]1CC[C@H]2[C@@H]3CCC4=CC(=O)CC[C@@H]4[C@H]3CC[C@]12C [Nandrolone decanoate] | 117% | 113 Percent DMSO | –
12 | O=C1C[C@@H](c2ccc(O)cc2)Oc2cc(O)cc(O)c21 [Naringenin] | 86% | 112 Percent DMSO | –
13 | C[C@@H]1O[C@@H](O[C@H]2[C@H](Oc3cc(O)c4c(c3)O[C@H](c3ccc(O)cc3)CC4=O)O[C@H](CO)[C@@H](O)[C@@H]2O)[C@H](O)[C@H](O)[C@H]1O [Naringin] | 124% | 115 Percent DMSO | –
14 | Cc1c(O)cccc1C(=O)N[C@@H](CSc1ccccc1)[C@H](O)CN1C[C@H]2CCCC[C@H]2C[C@H]1C(=O)NC(C)(C)C [Nelfinavir Mesylate] | 69% | 88 Percent DMSO | –
15 | Cc1ccnc2c1NC(=O)c1cccnc1N2C1CC1 [Nevirapine] | 104% | 100 Percent DMSO | –
16 | CC(=O)Oc1ccccc1C(=O)Nc1ncc([N+](=O)[O-])s1 [Nitazoxanide] | 24% | 41 Percent DMSO | –
17 | CC1(C)CC[C@]2(C(=O)O)CC[C@]3(C)C(=CC[C@@H]4[C@@]5(C)CC[C@H](O)C(C)(C)[C@@H]5CC[C@]43C)[C@@H]2C1 [Oleanolic Acid] | 82% | 118 Percent DMSO | –
18 | CC1(C)CC[C@]2(C(=O)O)CC[C@]3(C)C(=CC[C@@H]4[C@@]5(C)CCC(=O)C(C)(C)[C@@H]5CC[C@]43C)[C@@H]2C1 [Oleanonic Acid] | 935% | 1.23 Percent DMSO | –
19 | O=C(O)c1cc(=O)[nH]c(=O)[nH]1 [Orotic acid] | 85% | 105 Percent DMSO | –
20 | O=C(Nc1ccc(O)cc1)c1ccccc1O [Osalmid] | 132% | 93 Percent DMSO | –
21 | CN(C(=O)CN(CCO)CC(=O)N(C)C(C)(C)Cc1ccccc1)C(C)(C)Cc1ccccc1 [Oxethazaine] | 76% | 102 Percent DMSO | –
22 | O=C1CCC[C@@H]2[C@H]3CCC[N+]4([O-])CCC[C@@H](CN12)[C@@H]34 (stereo partly shown) [Oxymatrine] | 100% | 92 Percent DMSO | –
23 | CN(C)[C@@H]1C(O)=C(C(N)=O)C(=O)[C@@]2(O)C(O)=C3C(=O)c4c(O)cccc4[C@@](C)(O)[C@H]3[C@H](O)[C@@H]12 [Oxytetracycline] | 87% | 103 Percent DMSO | –
24 | C[C@@]1(F)[C@H](O)[C@@H](CO)O[C@H]1n1ccc(=O)[nH]c1=O [PSI6206] | – | 104 Percent DMSO | 1.52
25 | Cc1cnc(C(=O)N[C@H]2CCCCC/C=C\[C@@H]3C[C@@]3(C(=O)NS(=O)(=O)C3CC3)NC(=O)[C@@H]3C[C@@H](Oc4nc5ccccc5c5ccccc45)CN3C2=O)cn1 [Paritaprevir] | 64% | 91 Percent DMSO | –
26 | C[C@H]1CC[C@@]2(O)C(C)(C)[C@@H]3CC[C@@]2(C)[C@H]1C3 [Patchouli alcohol] | – | 122 Percent DMSO | 1.10

Reference: paper PMC12282101, “Heat shock protein 90 chaperone activity is required for hepatitis A virus replication” (Journal of Virology, 2025)
